Patent publication US20140155371A1, “MULTICOMPONENT CRYSTALLINE SYSTEM OF EZETIMIBE AND PROLINE” (BASF SE, priority 2011, published 2014)

What was measured:
[1] = Dynamic (water) vapor sorption (DVS); type: physicochemical
Source text: Dynamic (water) vapor sorption (DVS) is a method well known in the art to monitor the adsorption of water on a solid material. Therefore, DVS is a suitable method to determine the hygroscopic nature of a pharmaceutical active ingredient.
The crystalline form A described in WO 06/060808 (i.e. the free base) and the present composition (as obtained in example 3 further below) are subjected to a DVS experiment; results are shown in FIG. 4 and in the below Table 1. The crystalline composition is less prone to water uptake under humidity, and is easy to formulate compared to the crystalline anhydrous (“free base”) form of Ezetimibe (see Table 1).
Dynamic (water) vapour sorption (DVS) is performed with a Surface Measurement Systems Ltd. DVS-1 water sorption analyzer or with SPS11-100n moisture sorption instrument from Projekt Meβtechnik, Ulm, Germany.
Program: The relative humidity is kept at starting value of 0% for 5 hours, then continuously scanned from 0% to 60%, kept constant at 60% for 4 hours, and then scanned to 0% relative humidity, and kept constant for 4 hours. The scanning change rate of relative humidity is 5% per hour.

LDL levels = conditions: Ezetimibe added to statin therapy; compared with 6% by doubling the dose of statins; cited from earlier work

O=C1[C@H](CC[C@H](O)c2ccc(F)cc2)[C@@H](c2ccc(O)cc2)N1c1ccc(F)cc1 [1-(4-Fluorophenyl)-3(R)-[3-(4-fluorophenyl)-3(S)-hydroxypropyl]-4(S)-(4-hydroxyphenyl)azetidin-2-one]
Water vapor sorption: water content after 4 h at 60% r.h. ([1]; after 4 h at 60% r.h.): 4.3%
Water vapor sorption: water content after 10 h at 50% r.h. ([1]; after 10 h at 50% r.h.): 4.0%
water uptake ([1]; at 60% relative humidity, FIG. 4): about 4.3%
relative humidity at which hydrate formation starts ([1]; increasing ambient humidity, FIG. 4 dashed line): about 50%

O=C1[C@H](CC[C@H](O)c2ccc(F)cc2)[C@@H](c2ccc(O)cc2)N1c1ccc(F)cc1 [Ezetimibe, 1-(4-Fluorophenyl)-3(R)-[3-(4-fluorophenyl)-3(S)-hydroxypropyl]-4(S)-(4-hydroxyphenyl)azetidin-2-one]
reduction in LDL levels (LDL levels): 15%

O=C1[C@H](CC[C@H](O)c2ccc(F)cc2)[C@@H](c2ccc(O)cc2)N1c1ccc(F)cc1 [hydrate form]
relative humidity below which the hydrate begins to lose water ([1]; decreasing humidity, FIG. 4): about 25%
